Data set [1] can be described thus: Nanoparticle characterisation: particle size, polydispersity index, zeta potential. The class given is physicochemical. Particulars: nanoparticle composition with hEPO mRNA (Table 30). The text has this: Nanoparticle compositions may be characterized by a variety of methods. For example, microscopy (e.g., transmission electron microscopy or scanning electron microscopy) may be used to examine the morphology and size distribution of a nanoparticle composition. Dynamic light scattering or potentiometry (e.g., potentiometric titrations) may be used to measure zeta potentials. Dynamic light scattering may also be utilized to determine particle sizes. Instruments such as the Zetasizer Nano ZS (Malvern Instruments Ltd, Malvern, Worcestershire, UK) may also be used to measure multiple characteristics of a nanoparticle composition, such as particle size, polydispersity index, and zeta potential.
The mean size of a nanoparticle composition may be between 10s of nm and 100s of nm, e.g., measured by dynamic light scattering (DLS). For example, the mean size may be from about 40 nm to about 150 nm, such as about 40 nm, 45 nm, 50 nm, 55 nm, 60 nm, 65 nm, 70 nm, 75 nm, 80 nm, 85 nm, 90 nm, 95 nm, 100 nm, 105 nm, 110 nm, 115 nm, 120 nm, 125 nm, 130 nm, 135 nm, 140 nm, 145 nm, or 150 nm. In some embodiments, the mean size of a nanoparticle composition may be from about 50 nm to about 100 nm, from about 50 nm to about 90 nm, from about 50 nm to about 80 nm, from about 50 nm to about 70 nm, from about 50 nm to about 60 nm, from about 60 nm to about 100 nm, from about 60 nm to about 90 nm, from about 60 nm to about 80 nm, from about 60 nm to about 70 nm, from about 70 nm to about 150 nm, from about 70 nm to about 130 nm, from about 70 nm to about 100 nm, from about 70 nm to about 90 nm, from about 70 nm to about 80 nm, from about 80 nm to about 150 nm, from about 80 nm to about 130 nm, from about 80 nm to about 100 nm, from about 80 nm to about 90 nm, from about 90 nm to about 150 nm, from about 90 nm to about 130 nm, or from about 90 nm to about 100 nm. In certain embodiments, the mean size of a nanoparticle composition may from about 70 nm to about 130 nm or be from about 70 nm to about 100 nm. In a particular embodiment, the mean size may be about 80 nm. In other embodiments, the mean size may be about 100 nm. In other embodiments, the mean size may be about 120 nm.
A nanoparticle composition may be relatively homogenous. A polydispersity index may be used to indicate the homogeneity of a nanoparticle composition, e.g., the particle size distribution of the nanoparticle compositions. A small (e.g., less than 0.3) polydispersity index generally indicates a narrow particle size distribution. A nanoparticle composition may have a polydispersity index from about 0 to about 0.25, such as 0.01, 0.02, 0.03, 0.04, 0.05, 0.06, 0.07, 0.08, 0.09, 0.10, 0.11, 0.12, 0.13, 0.14, 0.15, 0.16, 0.17, 0.18, 0.19, 0.20, 0.21, 0.22, 0.23, 0.24, or 0.25. In some embodiments, the polydispersity index of a nanoparticle composition may be from about 0.10 to about 0.20.
The zeta potential of a nanoparticle composition may be used to indicate the electrokinetic potential of the composition. For example, the zeta potential may describe the surface charge of a nanoparticle composition. Nanoparticle compositions with relatively low charges, positive or negative, are generally desirable, as more highly charged species may interact undesirably with cells, tissues, and other elements in the body. In some embodiments, the zeta potential of a nanoparticle composition may be from about −10 mV to about +20 mV, from about −10 mV to about +15 mV, from about −10 mV to about +10 mV, from about −10 mV to about +5 mV, from about −10 mV to about 0 mV, from about −10 mV to about −5 mV, from about −5 mV to about +20 mV, from about −5 mV to about +15 mV, from about −5 mV to about +10 mV, from about −5 mV to about +5 mV, from about −5 mV to about 0 mV, from about 0 mV to about +20 mV, from about 0 mV to about +15 mV, from about 0 mV to about +10 mV, from about 0 mV to about +5 mV, from about +5 mV to about +20 mV, from about +5 mV to about +15 mV, or from about +5 mV to about +10 mV.

The test system of the next data set is hEPO mRNA. As to the kind of experiment: hEPO expression and pharmacokinetic parameters in non-human primates. The class given is in vivo, Cynomolgus monkeys. As to the method: The tolerability and efficacy of nanoparticle compositions to non-human primates was also investigated using a sample formulation including Compound 18. The formulation was prepared according to the standard MC3 formulation described above and included an hEPO mRNA. Primates were administered a single dose of 0.05 (Group 1), 0.3 (Group 2), or 1.0 (Group 3) mpk via intravenous infusion for 60 minutes. Three primates were administered each dose. Expression of hEPO was measured prior to dosing and at 2, 6, 24, 48, and 96 hours post-treatment (Table 26). Table 28 includes levels of indicators of complement activation, while Table 29 includes cytokine induction data.
The tolerability and efficacy of nanoparticle compositions to non-human primates was also investigated using sample formulations including Compounds 18, 25, 26, and 48 and MC3 to determine if these compounds are differentiated in terms of protein expression. The formulations were prepared according to the standard MC3 formulation described above and included an hEPO mRNA. Table 30 includes details of the compositions tested, while Table 31 summarizes the relative expression of Luc and hEPO mRNA in mice and rats. Expression was measured 6 hours after administration.
As is evident in the figure, expression was highest 6 hours post administration for all formulations tested, and was highest for those formulations including Compound 18.
NHP studies: Nonhuman primate studies were conducted using naïve cynomolgus monkeys (cynos), 2-4 years old, weighing 2-6 kg. No treatment randomization or blinding methods were used for any of the animal studies. Sample sizes were determined by the resource equation method. For injection, mRNA-LNPs in phosphate buffered saline (PBS) were administered by 60-minute intravenous infusion using a temporary indwelling catheter inserted in a peripheral vein.
hEPO ELISA for NHP samples: Human Epo levels were measured using a human erythropoietin immunoassay. Cytokines levels were measured using a non-human primate cytokine kit. […]

[2] abbreviates: hEPO, 0.01 mpk i.v. infusion, non-human primates.

Compound `CCCCCCCCCOC(=O)CCCCCCCN(CCO)CCCCCCCC(=O)OC(CCCCCCCC)CCCCCCCC` [Compound 18, Heptadecan-9-yl 8-((2-hydroxyethyl)(8-(nonyloxy)-8-oxooctyl)amino)octanoate] displayed an Osmolality in data set [1] of 312 mOsm/kg. In data set [1], the Zeta potential is −3.53 mV. Further, the pH in data set [1] worked out at 7.64. Further, the hEPO concentration with hEPO mRNA (0.05 mpk i.v. infusion, 2 h) is 142588 pg/mL; in the data set with hEPO mRNA (0.05 mpk i.v. infusion, 6 h) it was 379362 pg/mL; in the data set on hEPO mRNA (0.05 mpk i.v. infusion, 24 h) it was 103055 pg/mL; with hEPO mRNA (0.05 mpk i.v. infusion, 48 h), 25382 pg/mL; with hEPO mRNA (0.05 mpk i.v. infusion, 96 h) it was 2084 pg/mL; in the data set with hEPO mRNA (0.05 mpk i.v. infusion, Predose), 1000 pg/mL. For the same compound, the hEPO concentration in the data set with hEPO mRNA (0.3 mpk i.v. infusion, 2 h) amounted to 363272 pg/mL; in the data set with hEPO mRNA (0.3 mpk i.v. infusion, 6 h) it was 341285 pg/mL; in the data set with hEPO mRNA (0.3 mpk i.v. infusion, 24 h), 148789 pg/mL; in the data set with hEPO mRNA (0.3 mpk i.v. infusion, 48 h) it was 57095 pg/mL; with hEPO mRNA (0.3 mpk i.v. infusion, 96 h), 6095 pg/mL; in the data set on hEPO mRNA (0.3 mpk i.v. infusion, Predose), 1000 pg/mL. Besides, the hEPO concentration is 312006 pg/mL with hEPO mRNA (1.0 mpk i.v. infusion, 2 h); 502663 pg/mL in the data set on hEPO mRNA (1.0 mpk i.v. infusion, 6 h); 467598 pg/mL in the data set with hEPO mRNA (1.0 mpk i.v. infusion, 24 h); 175953 pg/mL in the data set on hEPO mRNA (1.0 mpk i.v. infusion, 48 h); 24795 pg/mL with hEPO mRNA (1.0 mpk i.v. infusion, 96 h); 1000 pg/mL in the data set with hEPO mRNA (1.0 mpk i.v. infusion, Predose). Besides, the “exposure of hEPO protein relative to the MC3 LNP control” value with hEPO mRNA (NHP, 0.01 mg/kg, 60 minute intravenous infusion) is “five-fold higher”. In addition, the “AUC Lipid/MC3 Ratio” value with hEPO mRNA (setting [2]) was determined as 6.0. In the data set with hEPO mRNA (naive cynomolgus monkeys, i.v. 0.01 mpk, 60 minutes infusion), the “hEPO mRNA expression” value is listed as “highest”. Also, in the data set with hEPO mRNA (non-human primates, comparable doses), the “hEPO levels compared with MC3 formulations” value is given as “higher than those measured upon administration of comparable doses of MC3 formulations”.
For `CCCCC/C=C\C/C=C\CCCCCCCCC(CCCCCCCC/C=C\C/C=C\CCCCC)OC(=O)CCCN(C)C` [MC3, DLin-MC3-DMA, reference compound], in data set [1], the Osmolality came to 318 mOsm/kg, the Zeta potential is reported as −3.64 mV and the pH came out at 7.52. Also, in the data set on hEPO mRNA (setting [2]), the “AUC0-t Mean” value was 284 ng·h/mL, the “AUC Lipid/MC3 Ratio” value is reported as 1.0, the “Cmax Mean” value is 14.1 ng/mL and the “Tmax Mean” value came to 8 h.
Consider `CCCCCCCCC(C)OC(=O)CCCCCCCN(CCO)CCCCCCCC(=O)OC(CCCCCCCC)CCCCCCCC` (centres unmarked) [Compound 48, decan-2-yl 8-((8-(heptadecan-9-yloxy)-8-oxooctyl)(2-hydroxyethyl)amino)octanoate], for which, in data set [1], the Osmolality came to 311 mOsm/kg, the Zeta potential is −3.61 mV and the pH turned out to be 7.58. The “AUC Lipid/MC3 Ratio” value with hEPO mRNA (setting [2]) was 0.9.
With `CCCCCCCCCCCOC(=O)CCCCCN(CCO)CCCCCCCC(=O)OC(CCCCCCCC)CCCCCCCC` [Compound 25, Heptadecan-9-yl 8-((2-hydroxyethyl)(6-oxo-6-(undecyloxy)hexyl)amino)octanoate], in data set [1], the Osmolality stood at 304 mOsm/kg, the Zeta potential is −3.88 mV and the pH was determined as 7.60. In the data set with hEPO mRNA (setting [2]), the “AUC Lipid/MC3 Ratio” value worked out at 3.3.
Turning to `CCCCCCCCCOC(=O)CCCN(CCO)CCCCCCCC(=O)OC(CCCCCCCC)CCCCCCCC` [Compound 26, Heptadecan-9-yl 8-((2-hydroxyethyl)(4-(nonyloxy)-4-oxobutyl)amino) octanoate], in data set [1], the Osmolality worked out at 305 mOsm/kg, the Zeta potential is on record as −3.73 mV and the pH is 7.54. In addition, the “AUC Lipid/MC3 Ratio” value with hEPO mRNA (setting [2]) is 1.3.

For the origin of these results see US12263248B2, “Compounds and compositions for intracellular delivery of therapeutic agents” (ModernaTX, Inc., priority 2018, dated 2025).
